Source: US11759430B2, “Active substance carrier comprising biopolymer” (AMOREPACIFIC CORPORATION, priority 2019, dated 2023)

Tested on: stratum corneum of the cultured artificial skin (human epidermal keratinocytes)
Experiment: Test Example 2: transdermal penetration of hydrophobic fluorescent dye (Nile red) into artificial skin
Format: in vitro ADME
Settings: after a night, stratum corneum average thickness 10.73 μm, FIG. 7
Method: The following experiment was conducted in order to investigate whether the core-shell network structure according to an exemplary embodiment of the present disclosure serves as a carrier facilitating the transdermal absorption of an active substance.
First, a core-shell network solution (Example 3) was prepared in the same manner as in Example 2 except that, instead of the red ginseng saponin as the active substance, a hydrophobic fluorescent dye (Nile red, Sigma-Aldrich) was encapsulated at a concentration of […]. The contents of zein, pullulan and pectin of Example 3 based on the total weight of the composition were 0.01 wt %, 0.02 wt % and 0.002 wt %, respectively. […]
The cells were exposed to the air by removing the medium except for the part occupied by the cells. […] After freezing using an OCT (Cryomatrix, Thermo Scientific) and slicing to a thickness of 10 μm, the frozen sections were imaged with a fluorescence microscope (BX53, Olympus, Japan) and a microscopic digital camera (DP72, Olympus, Japan). […] To compare the effect of the present disclosure, the stratum corneum of the skin was treated only with a hydrophobic fluorescent dye in Comparative Example 3, and the degree of penetration of the hydrophobic fluorescent dye was analyzed in the same manner.

penetration depth of the dye into the stratum corneum, on average: about 3.62 μm
Structure (SMILES): CCN(CC)c1ccc2nc3c4ccccc4c(=O)cc-3oc2c1 [Comparative Example 3, Nile red]
